Values joined by “and” are separate entries in the source; they are usually repeats but may differ in a detail not shown here. Equal values may be shown once.
How the values were obtained:
[1] = biological target: mTOR enzyme (mTOR(1360-2549)+GBL) (Homo sapiens, UniProt P42345); assay: In vitro mTOR kinase assay (TR-FRET); format: biochemical; conditions: 0.25 nM mTOR+GBL, 8 uM ATP; values tied to compounds by order of Table 1; 'x or y' = two alternative values for separated diastereomers of unassigned stereochemistry; read-out: activity level (Ki) in the mTOR kinase assay
mTOR enzyme (mTOR(1360-2549)+GBL), sequence (P42345 1360-2549, species assumed): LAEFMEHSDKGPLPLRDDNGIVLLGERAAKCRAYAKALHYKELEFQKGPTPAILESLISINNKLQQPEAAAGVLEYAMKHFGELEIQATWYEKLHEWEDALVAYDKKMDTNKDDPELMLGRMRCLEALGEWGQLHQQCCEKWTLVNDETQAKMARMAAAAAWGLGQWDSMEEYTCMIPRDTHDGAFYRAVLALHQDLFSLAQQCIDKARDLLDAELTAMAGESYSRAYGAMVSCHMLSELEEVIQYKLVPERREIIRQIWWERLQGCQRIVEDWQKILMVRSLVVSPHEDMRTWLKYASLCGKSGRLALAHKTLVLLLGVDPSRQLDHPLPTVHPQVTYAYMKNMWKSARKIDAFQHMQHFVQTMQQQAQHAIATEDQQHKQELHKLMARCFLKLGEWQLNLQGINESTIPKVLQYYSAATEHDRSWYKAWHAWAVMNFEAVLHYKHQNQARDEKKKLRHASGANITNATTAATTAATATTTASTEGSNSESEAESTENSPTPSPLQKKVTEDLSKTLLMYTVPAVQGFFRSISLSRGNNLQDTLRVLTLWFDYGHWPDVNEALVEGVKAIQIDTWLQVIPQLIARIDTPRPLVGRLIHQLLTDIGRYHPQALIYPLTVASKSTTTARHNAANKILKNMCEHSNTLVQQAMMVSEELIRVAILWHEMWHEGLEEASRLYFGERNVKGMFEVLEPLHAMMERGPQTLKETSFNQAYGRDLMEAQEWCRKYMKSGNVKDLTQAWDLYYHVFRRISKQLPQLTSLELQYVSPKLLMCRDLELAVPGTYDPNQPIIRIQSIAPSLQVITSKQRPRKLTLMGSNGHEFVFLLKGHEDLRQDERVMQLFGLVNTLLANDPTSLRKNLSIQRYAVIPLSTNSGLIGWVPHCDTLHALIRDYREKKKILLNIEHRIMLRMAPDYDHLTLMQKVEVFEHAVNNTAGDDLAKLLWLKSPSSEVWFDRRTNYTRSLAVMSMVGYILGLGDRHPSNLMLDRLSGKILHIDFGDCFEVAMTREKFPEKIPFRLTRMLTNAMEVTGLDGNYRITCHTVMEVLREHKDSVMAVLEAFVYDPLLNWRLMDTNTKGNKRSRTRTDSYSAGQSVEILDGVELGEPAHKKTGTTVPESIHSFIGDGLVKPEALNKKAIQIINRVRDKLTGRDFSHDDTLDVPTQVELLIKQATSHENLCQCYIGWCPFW
mTOR enzyme (mTOR(1360-2549)+GBL), sequence (Q9BVC4 whole entry partner, species assumed): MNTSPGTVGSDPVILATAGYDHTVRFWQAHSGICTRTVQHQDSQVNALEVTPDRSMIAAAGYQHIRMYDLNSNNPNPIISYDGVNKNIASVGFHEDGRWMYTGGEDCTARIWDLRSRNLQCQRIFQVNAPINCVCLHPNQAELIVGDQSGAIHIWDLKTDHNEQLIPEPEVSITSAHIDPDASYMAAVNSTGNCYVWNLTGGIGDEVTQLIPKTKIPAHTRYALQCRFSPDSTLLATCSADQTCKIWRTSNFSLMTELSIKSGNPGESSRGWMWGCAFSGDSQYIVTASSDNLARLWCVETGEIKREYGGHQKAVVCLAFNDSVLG
In short: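 Compounds were tested in 10-point dose curves from 10 uM top final concentration. The reaction was stopped with 2 nM Tb-anti-p4E-BP1 (T37/T46) antibody plus 10 mM EDTA for 30 minutes, and phospho-4E-BP1 was detected by TR-FRET. Ki apparent was fitted with the Morrison ATP-competitive tight-binding equation.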

PC3 cells = assay: In vitro cell proliferation assay; format: cell-based, human; conditions: values tied to compounds by order of Table 1
In short: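 PC3 (or MDAMB361.1) cells, ~10^3/well, settled overnight, then exposed to compound for 3 days; viability read by CellTiter-Glo luminescence (RLU). Alternatively, 4-day compound exposure followed by Alamar Blue for 6 h, fluorescence 544/590 nm; EC50 from sigmoidal dose-response fit.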

[2] = Homo sapiens, PC-3, with PC3 cells

Compound | Ki [1] | EC50 (PC3 cells; [2]) [nM] | EC50 (PC3 cells; with PC3 cells) [nM]
CCC[C@]1(C)OCc2c(N3CCOCC3)nc(-c3ccc(NC(=O)NCC)cc3)nc21 [Example 73 ef (S), (S)-1-ethyl-3-(4-(7-methyl-4-morpholino-7-propyl-5,7-dihydrofuro[3,4-d]pyrimidin-2-yl)phenyl)urea] | 2 nM | 35 | –
C[C@H]1COCCN1c1nc(-c2ccc(NC(=O)NCCO)cc2)nc2c1CCCO2 [Example 33, (S)-1-(2-hydroxyethyl)-3-(4-(4-(3-methylmorpholino)-6,7-dihydro-5H-pyrano[2,3-d]pyrimidin-2-yl)phenyl)urea] | 1 nM | 111 | –
CNc1nc2cc(-c3nc(N4CCOC[C@@H]4C)c4c(n3)C(C)(C)OC4)ccc2[nH]1 [Example 125, (S)-5-(7,7-dimethyl-4-(3-methylmorpholino)-5,7-dihydrofuro[3,4-d]pyrimidin-2-yl)-N-methyl-1H-benzo[d]imidazol-2-amine] | 10 nM | 562 | –
C[C@H]1COCCN1c1nc(-c2ccc(NC(=O)NC3COC3)cc2)nc2c1COCC2 [Example 25, (S)-1-(4-(4-(3-methylmorpholino)-7,8-dihydro-5H-pyrano[4,3-d]pyrimidin-2-yl)phenyl)-3-(oxetan-3-yl)urea] | 13 nM | 1500 | –
CCNC(=O)Nc1ccc(-c2nc(N3CCOC[C@@H]3C)c3c(n2)C(C)(CCn2ccnc2)OC3)cc1 (single isomer, unassigned) [Example 80 es (S)] | 2 nM | – | 316
C[C@H]1COCCN1c1nc(-c2ccc(NC(=O)NCCS(C)(=O)=O)cc2)nc2c1COCC2 [Example 59, (S)-1-(4-(4-(3-methylmorpholino)-7,8-dihydro-5H-pyrano[4,3-d]pyrimidin-2-yl)phenyl)-3-(2-(methylsulfonyl)ethyl)urea] | 46 nM | 4000 | –
CCC[C@@]1(C)OCc2c(N3CCOCC3)nc(-c3ccc(NC(=O)NCC)cc3)nc21 [Example 73 ef (R), (R)-1-ethyl-3-(4-(7-methyl-4-morpholino-7-propyl-5,7-dihydrofuro[3,4-d]pyrimidin-2-yl)phenyl)urea] | 4 nM | 92 | –
CCNC(=O)Nc1ccc(-c2nc3c(c(N4CCOC[C@@H]4C)n2)COC(C)(C)C3)cc1 [(S)-1-(4-(7,7-dimethyl-4-(3-methylmorpholino)-7,8-dihydro-5H-pyrano[4,3-d]pyrimidin-2-yl)phenyl)-3-ethylurea] | 3 nM | 50 | –
Cn1cc(NC(=O)Nc2ccc(-c3nc4c(c(N5CCOCC5)n3)CCC3(CC3)O4)cc2)cn1 [Example 45, 1-(1-methyl-1H-pyrazol-4-yl)-3-(4-(4′-morpholino-5′,6′-dihydrospiro[cyclopropane-1,7′-pyrano[2,3-d]pyrimidine]-2′-yl)phenyl)urea] | 2 nM | 102 | –
COCC[C@]1(C)OCc2c(N3CCOC[C@@H]3C)nc(-c3ccc4nc(N)oc4c3)nc21 [Example 112 hg^1] | 255 nM and 410 nM | 671 | –
CCCC1(C)OCc2c(N3CCOC[C@@H]3C)nc(-c3ccc(NC(=O)NCC)cc3)nc21 (stereo partly drawn) [Example 83, 1-ethyl-3-(4-(7-methyl-4-((S)-3-methylmorpholino)-7-propyl-5,7-dihydrofuro[3,4-d]pyrimidin-2-yl)phenyl)urea] | 2 nM | 84 | –
C[C@H]1COCCN1c1nc(-c2ccc(NC(=O)NC3CCC3)cc2)nc2c1COCC2 [Example 26, (S)-1-cyclobutyl-3-(4-(4-(3-methylmorpholino)-7,8-dihydro-5H-pyrano[4,3-d]pyrimidin-2-yl)phenyl)urea] | 14 nM | 1600 | –
C[C@H]1COCCN1c1nc(-c2ccc(Nc3cccc(=O)[nH]3)cc2)nc2c1COCC2 [Example 29, (S)-6-(4-(4-(3-methylmorpholino)-7,8-dihydro-5H-pyrano[4,3-d]pyrimidin-2-yl)phenylamino)pyridin-2(1H)-one] | 5 nM | 341 | –
C[C@H]1COCCN1c1nc(-c2ccc(NC(=O)Nc3ccn(C)n3)cc2)nc2c1CCCO2 [Example 30, (S)-1-(1-methyl-1H-pyrazol-3-yl)-3-(4-(4-(3-methylmorpholino)-6,7-dihydro-5H-pyrano[2,3-d]pyrimidin-2-yl)phenyl)urea] | 1 nM | 172 | –
O=C(Nc1ccc(-c2nc3c(c(N4CCOCC4)n2)CCC2(CC2)O3)cc1)NC1COC1 [Example 43, 1-(4-(4′-morpholino-5′,6′-dihydrospiro[cyclopropane-1,7′-pyrano[2,3-d]pyrimidine]-2′-yl)phenyl)-3-(oxetan-3-yl)urea] | 6 nM | 392 | –
C[C@H]1COCCN1c1nc(-c2ccc(Nc3nccc(=O)[nH]3)cc2)nc2c1CCCO2 [Example 34, (S)-2-(4-(4-(3-methylmorpholino)-6,7-dihydro-5H-pyrano[2,3-d]pyrimidin-2-yl)phenylamino)pyrimidin-4(3H)-one] | 1 nM | 45 | –
CCNC(=O)Nc1ccc(-c2nc3c(c(N4CCOC[C@@H]4C)n2)CCOC3)cc1 [Example 13 al, (S)-1-ethyl-3-(4-(4-(3-methylmorpholino)-6,8-dihydro-5H-pyrano[3,4-d]pyrimidin-2-yl)phenyl)urea] | 2 nM | 194 | –
C[C@H]1COCCN1c1nc(-c2ccc(NC(=O)NCCS(C)(=O)=O)cc2)nc2c1CCC1(CC1)O2 [Example 57, (S)-1-(4-(4′-(3-methylmorpholino)-5′,6′-dihydrospiro[cyclopropane-1,7′-pyrano[2,3-d]pyrimidine]-2′-yl)phenyl)-3-(2-(methylsulfonyl)ethyl)urea] | 5 nM | 595 | –
Cc1coc(NC(=O)Nc2ccc(-c3nc4c(c(N5CCOC[C@@H]5C)n3)CCC3(CC3)O4)cc2)n1 [Example 53, (S)-1-(4-(4′-(3-methylmorpholino)-5′,6′-dihydrospiro[cyclopropane-1,7′-pyrano[2,3-d]pyrimidine]-2′-yl)phenyl)-3-(4-methyloxazol-2-yl)urea] | 1 nM | 233 | –
Cc1nnc(NC(=O)Nc2ccc(-c3nc4c(c(N5CCOC[C@@H]5C)n3)COCC4)cc2)o1 [Example 27, (S)-1-(5-methyl-1,3,4-oxadiazol-2-yl)-3-(4-(4-(3-methylmorpholino)-7,8-dihydro-5H-pyrano[4,3-d]pyrimidin-2-yl)phenyl)urea] | 26 nM | 313 | –
O=C(Nc1ccc(-c2nc3c(c(N4[C@@H]5CC[C@H]4COC5)n2)CCC2(CC2)O3)cc1)NC1COC1 [Example 71, 1-(4-(4′-((1R,5S)-3-oxa-8-azabicyclo[3.2.1]octan-8-yl)-5′,6′-dihydrospiro[cyclopropane-1,7′-pyrano[2,3-d]pyrimidine]-2′-yl)phenyl)-3-(oxetan-3-yl)urea] | 2 nM | 479 | –
CCNC(=O)Nc1ccc(-c2nc(N3CCOC[C@@H]3C)c3c(n2)C(C)(CCn2ccnc2)OC3)cc1 (single isomer, unassigned) [Example 80 es (R)] | 9 nM | 454 | –
C=CC[C@@]1(C)OCc2c(N3CCOC[C@@H]3C)nc(-c3ccc(NC(=O)NCC)cc3)nc21 [Example 85 ek^2] | 2 nM | 66 | –
C[C@H]1COCCN1c1nc(-c2ccc(NC(=O)Nc3cnn(C)c3)cc2)nc2c1CCC1(CC1)O2 [Example 50, (S)-1-(1-methyl-1H-pyrazol-4-yl)-3-(4-(4′-(3-methylmorpholino)-5′,6′-dihydrospiro[cyclopropane-1,7′-pyrano[2,3-d]pyrimidine]-2′-yl)phenyl)urea] | 1 nM | 29 | –
CC1(C)OCc2c(N3CCOCC3)nc(-c3ccc4oc(N)nc4c3)nc21 [Example 114, 5-(7,7-dimethyl-4-morpholino-5,7-dihydrofuro[3,4-d]pyrimidin-2-yl)benzo[d]oxazol-2-amine] | 124 nM | 2500 | –
O=C(Nc1ccc(-c2nc3c(c(N4[C@@H]5CC[C@H]4COC5)n2)CCCO3)cc1)NC1COC1 [1-(4-(4-((1R,5S)-3-oxa-8-azabicyclo[3.2.1]octan-8-yl)-6,7-dihydro-5H-pyrano[2,3-d]pyrimidin-2-yl)phenyl)-3-(oxetan-3-yl)urea] | 5 nM | 238 | –
CNC(=O)Nc1ccc(-c2nc3c(c(N4CCOC[C@@H]4C)n2)CCC2(CC2)O3)cc1 [Example 56, (S)-1-methyl-3-(4-(4′-(3-methylmorpholino)-5′,6′-dihydrospiro[cyclopropane-1,7′-pyrano[2,3-d]pyrimidine]-2′-yl)phenyl)urea] | 1 nM | 37 | –
C[C@H]1COCCN1c1nc(-c2ccc(NC(=O)NCCC#N)cc2)nc2c1CCC1(CC1)O2 [Example 66, (S)-1-(2-cyanoethyl)-3-(4-(4′-(3-methylmorpholino)-5′,6′-dihydrospiro[cyclopropane-1,7′-pyrano[2,3-d]pyrimidine]-2′-yl)phenyl)urea] | 2 nM | 99 | –
C[C@H]1COCCN1c1nc(-c2ccc(NC(=O)NC3COC3)cc2)nc2c1CCC1(CC1)O2 [Example 51, (S)-1-(4-(4′-(3-methylmorpholino)-5′,6′-dihydrospiro[cyclopropane-1,7′-pyrano[2,3-d]pyrimidine]-2′-yl)phenyl)-3-(oxetan-3-yl)urea] | 1 nM | 77 | –
CCNC(=O)Nc1ccc(-c2nc3c(c(N4CCOC[C@@H]4C)n2)COC3)cc1 [Example 96, (S)-1-ethyl-3-(4-(4-(3-methylmorpholino)-5,7-dihydrofuro[3,4-d]pyrimidin-2-yl)phenyl)urea] | 9 nM | 28 | –
